Experimental data: ChEMBL document CHEMBL1201862, “PubChem BioAssay data set” (2004)
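Briefly, cells in 96-well plates were exposed to five compound concentrations for 48 h, and endpoints were estimated by linear interpolation. GI50: concentration for 50% inhibition of growth.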 Activity calls are given as the source filed them. Cut-off read from the data, not from the text of the source: active = GI50 up to about 1.1 µM and inactive = higher.

Columns and labels:
Assay in all cases: inhibition of tumour cell growth, NCI panel, 48 h
KM12 = system: KM12
NCI-H226 = system: NCI-H226
HL-60 = system: HL-60
HOP-62 = system: HOP-62
M14 = system: M14
OVCAR-8 = system: OVCAR-8
MOLT-4 = system: MOLT-4
786-0 = system: 786-0
ACHN = system: ACHN
TK-10 = system: TK-10
SF-539 = system: SF-539
OVCAR-5 = system: OVCAR-5
SF-295 = system: SF-295
K562 = system: K562
MDA-MB-435 = system: MDA-MB-435
BT-549 = system: BT-549
HCT-116 = system: HCT-116
T47D = system: T47D
MDA-N = system: MDA-N

| SMILES | GI50 (KM12) | GI50 (NCI-H226) | GI50 (HL-60) | GI50 (HOP-62) | GI50 (M14) | GI50 (OVCAR-8) | GI50 (MOLT-4) | GI50 (786-0) | GI50 (ACHN) | GI50 (TK-10) | GI50 (SF-539) | GI50 (OVCAR-5) | GI50 (SF-295) | GI50 (K562) | GI50 (MDA-MB-435) | GI50 (BT-549) | GI50 (HCT-116) | GI50 (T47D) | GI50 (MDA-N) |
| --- | --- | --- | --- | --- | --- | --- | --- | --- | --- | --- | --- | --- | --- | --- | --- | --- | --- | --- | --- |
| CCOc1ccc(NC(=O)C2=C(C)NC(C)=C(C(=O)Nc3ccc(OCC)cc3)C2c2ccc([N+](=O)[O-])cc2)cc1 | 29.9 µM (inactive) | 26.8 µM (inactive) | 18.3 µM (inactive) | 36.1 µM (inactive) | 23.7 µM (inactive) | 35 µM (inactive) | 7.1 µM (inactive) | 29.3 µM (inactive) | 21.1 µM (inactive) | 17.9 µM (inactive) | 24.3 µM (inactive) | 31.8 µM (inactive) | 38 µM (inactive) | 23.3 µM (inactive) | – | – | – | – | – |
| O=C(OCC1CC(C2(O)CCCCC2)C(=O)O1)c1ccccc1 (configuration not stated) | > 100 µM (inactive) | > 100 µM (inactive) | – | > 100 µM (inactive) | > 100 µM (inactive) | > 100 µM (inactive) | > 100 µM (inactive) | > 100 µM (inactive) | > 100 µM (inactive) | > 100 µM (inactive) | > 100 µM (inactive) | > 100 µM (inactive) | > 100 µM (inactive) | > 100 µM (inactive) | > 100 µM (inactive) | > 100 µM (inactive) | > 100 µM (inactive) | – | – |
| Cc1ccc(CNc2ccc(Br)cc2)cc1 | 16.3 µM (inactive) | 60 µM (inactive) | 25.2 µM (inactive) | 83.2 µM (inactive) | 59.6 µM (inactive) | 16.3 µM (inactive) | 44.8 µM (inactive) | 48.3 µM (inactive) | 11.4 µM (inactive) | 40 µM (inactive) | 36.8 µM (inactive) | > 100 µM (inactive) | 47.8 µM (inactive) | 22.9 µM (inactive) | 22.8 µM (inactive) | – | 26.7 µM (inactive) | 29.5 µM (inactive) | 25.4 µM (inactive) |
| O=C1c2cccc3cc([N+](=O)[O-])cc(c23)C(=O)N1c1ccc(OCCN2CCCC2)cc1 | 22.2 µM (inactive) | 9.35 µM (inactive) | 10.8 µM (inactive) | 30.5 µM (inactive) | 20 µM (inactive) | 19.8 µM (inactive) | 4.85 µM (inactive) | 10.6 µM (inactive) | 10 µM (inactive) | 22.4 µM (inactive) | 13.3 µM (inactive) | 19.4 µM (inactive) | 20.8 µM (inactive) | – | 19.4 µM (inactive) | – | 6.79 µM (inactive) | > 100 µM (inactive) | 30.8 µM (inactive) |
| NS(=O)(=O)c1ccccc1C(=O)N/N=C(\c1nc2ccc([N+](=O)[O-])cc2[nH]c1=O)C(O)c1ccc([N+](=O)[O-])cc1 (configuration not stated) | 66.2 µM (inactive) | > 100 µM (inactive) | > 100 µM (inactive) | – | > 100 µM (inactive) | > 100 µM (inactive) | > 100 µM (inactive) | > 100 µM (inactive) | 41.6 µM (inactive) | > 100 µM (inactive) | 49.2 µM (inactive) | > 100 µM (inactive) | > 100 µM (inactive) | 56.5 µM (inactive) | – | – | 84.1 µM (inactive) | – | – |
| COc1cc2c(c(OC)c1OC)C(=O)[C@H]1OC(=O)N[C@@H]21 | > 100 µM (inactive) | > 100 µM (inactive) | > 100 µM (inactive) | > 100 µM (inactive) | > 100 µM (inactive) | > 100 µM (inactive) | > 100 µM (inactive) | > 100 µM (inactive) | > 100 µM (inactive) | > 100 µM (inactive) | > 100 µM (inactive) | > 100 µM (inactive) | > 100 µM (inactive) | > 100 µM (inactive) | > 100 µM (inactive) | – | > 100 µM (inactive) | > 100 µM (inactive) | – |
| CC(=O)c1c2c(cc3c1CC1(C3)Cc3cc4c(c(C(=O)O)c3C1)CCCC4)CCCC2.CC(N)c1ccccc1 (configuration not stated) | 27 µM (inactive) | – | 25.5 µM (inactive) | 21.6 µM (inactive) | 28.8 µM (inactive) | 28.2 µM (inactive) | 17.6 µM (inactive) | 34.4 µM (inactive) | 28.8 µM (inactive) | 37.5 µM (inactive) | – | 28.5 µM (inactive) | 33.7 µM (inactive) | 36.4 µM (inactive) | 54.8 µM (inactive) | – | 25.1 µM (inactive) | 36.6 µM (inactive) | 42.1 µM (inactive) |
| O=C(C=P(c1ccccc1)(c1ccccc1)c1ccccc1)c1ccccc1-c1ccccc1C(=O)C=P(c1ccccc1)(c1ccccc1)c1ccccc1 | < 0.01 µM (active) | 0.0221 µM (active) | < 0.01 µM (active) | 0.0311 µM (active) | 0.0352 µM (active) | < 0.01 µM (active) | 0.0124 µM (active) | 0.0344 µM (active) | 0.0272 µM (active) | < 0.01 µM (active) | 0.0328 µM (active) | 0.0462 µM (active) | 0.0269 µM (active) | < 0.01 µM (active) | 0.0267 µM (active) | – | 0.0222 µM (active) | < 0.01 µM (active) | 0.0229 µM (active) |
| COc1ccccc1/C=C\C(=O)C1COCN1 (configuration not stated) | 4.39 µM (inactive) | 18.7 µM (inactive) | 19 µM (inactive) | 21.4 µM (inactive) | 50.8 µM (inactive) | 14.5 µM (inactive) | 3.95 µM (inactive) | 23.9 µM (inactive) | 10.7 µM (inactive) | 21.2 µM (inactive) | 20.5 µM (inactive) | 24.7 µM (inactive) | 26.1 µM (inactive) | 6.98 µM (inactive) | 6.9 µM (inactive) | – | 6.97 µM (inactive) | 1.45 µM (inactive) | – |
| CC(C)=C/C(CC(O)(C(F)(F)F)C(F)(F)F)=N\O | > 100 µM (inactive) | > 100 µM (inactive) | > 100 µM (inactive) | > 100 µM (inactive) | > 100 µM (inactive) | > 100 µM (inactive) | > 100 µM (inactive) | > 100 µM (inactive) | > 100 µM (inactive) | > 100 µM (inactive) | > 100 µM (inactive) | > 100 µM (inactive) | > 100 µM (inactive) | > 100 µM (inactive) | > 100 µM (inactive) | – | > 100 µM (inactive) | > 100 µM (inactive) | – |
| C=C(C)CCC1C=[N+]([O-])OC(C)(C)C1(C)C (configuration not stated) | > 100 µM (inactive) | > 100 µM (inactive) | 30.1 µM (inactive) | > 100 µM (inactive) | > 100 µM (inactive) | > 100 µM (inactive) | > 100 µM (inactive) | > 100 µM (inactive) | > 100 µM (inactive) | > 100 µM (inactive) | > 100 µM (inactive) | > 100 µM (inactive) | > 100 µM (inactive) | > 100 µM (inactive) | > 100 µM (inactive) | – | > 100 µM (inactive) | > 100 µM (inactive) | > 100 µM (inactive) |
| CCOC(=O)c1c(OCC)[nH]c(=O)c(C(c2ccc(F)cc2)c2c(O)c(C(=O)OCC)c(OCC)[nH]c2=O)c1O | 16.9 µM (inactive) | 9.82 µM (inactive) | 17.2 µM (inactive) | 13 µM (inactive) | 24.6 µM (inactive) | 14 µM (inactive) | 20.1 µM (inactive) | 16.4 µM (inactive) | 16.3 µM (inactive) | 25.2 µM (inactive) | 10 µM (inactive) | 29 µM (inactive) | 17.7 µM (inactive) | 16.5 µM (inactive) | 17.6 µM (inactive) | 9.71 µM (inactive) | 25.7 µM (inactive) | 4.44 µM (inactive) | – |
| COc1cc(OC)c(/C=N\Nc2nc3ccccc3c(=O)n2-c2ccccc2)c(OC)c1 | > 31.6 µM (inactive) | 19.4 µM (inactive) | 33 µM (inactive) | 19.4 µM (inactive) | 27.3 µM (inactive) | 28.7 µM (inactive) | 22.9 µM (inactive) | 17.7 µM (inactive) | 18.1 µM (inactive) | 34.1 µM (inactive) | 18 µM (inactive) | 43.9 µM (inactive) | 25.6 µM (inactive) | 33 µM (inactive) | 24.5 µM (inactive) | – | 20.1 µM (inactive) | 24.6 µM (inactive) | 17.4 µM (inactive) |
| Cc1ccc(N2CCN(CCC(=O)O)CC2)cc1 | > 100 µM (inactive) | > 100 µM (inactive) | 0.834 µM (active) | > 100 µM (inactive) | > 100 µM (inactive) | > 100 µM (inactive) | – | > 100 µM (inactive) | > 100 µM (inactive) | > 100 µM (inactive) | > 100 µM (inactive) | > 100 µM (inactive) | > 100 µM (inactive) | 2.94 µM (inactive) | > 100 µM (inactive) | > 100 µM (inactive) | > 100 µM (inactive) | > 100 µM (inactive) | – |
| CCN(CC)CC[S+]([O-])c1c2cc(OC)ccc2nc2ccc(OC)cc12 (configuration not stated) | 20.6 µM (inactive) | 18.1 µM (inactive) | 3.67 µM (inactive) | 19.4 µM (inactive) | 9.55 µM (inactive) | 3.83 µM (inactive) | 2.31 µM (inactive) | 2.02 µM (inactive) | 2.38 µM (inactive) | 5.56 µM (inactive) | 2.32 µM (inactive) | 16.6 µM (inactive) | 21.8 µM (inactive) | 5.78 µM (inactive) | 9.46 µM (inactive) | 15.8 µM (inactive) | 2.19 µM (inactive) | 1.95 µM (inactive) | – |
| O=C1Cc2c([nH]c3ccccc23)C2(CC3CCCCN13)OCCO2 (configuration not stated) | > 100 µM (inactive) | > 100 µM (inactive) | – | > 100 µM (inactive) | > 100 µM (inactive) | > 100 µM (inactive) | – | > 100 µM (inactive) | > 100 µM (inactive) | > 100 µM (inactive) | – | > 100 µM (inactive) | > 100 µM (inactive) | – | > 100 µM (inactive) | > 100 µM (inactive) | > 100 µM (inactive) | > 100 µM (inactive) | – |
